Laboratory results taken from US10463681B2, “Combination therapy for skin disorders” (M. Alphabet 1, LLC, priority 2010, dated 2019).

How the values were obtained:
Type in all cases: in vivo, human
[1] = tested on: porphyrins, a measure of bacteria in pores; assay: Visia complexion analysis: average number of porphyrins
Protocol: Thirty-five patients (13-55 years of age) were enrolled in a placebo-controlled study. Twenty-seven patients were treated with oral administration of a capsule containing the ingredients of Formula 1 and eight patients were treated with a placebo capsule containing only doxycycline hyclate (50 mg). Patients received Formula 1 or placebo twice daily for twelve weeks. The number of comedones (“blackheads”) and nodular and inflammatory lesions (>2 mm in diameter) were counted on the face of each patient at baseline and at two weeks, six weeks and twelve weeks post-treatment. […] Lastly, the Visia™ complexion analysis system was used to assess the average number of porphyrins, a measure of bacteria in pores, in each patient.

[2] = tested on: comedones and nodular and inflammatory lesions (acne in patients); assay: Placebo-controlled study in acne patients: counts of comedones and nodular and inflammatory lesions on the face
Protocol: (§1) Thirty-five patients (13-55 years of age) were enrolled in a placebo-controlled study. Twenty-seven patients were treated with oral administration of a capsule containing the ingredients of Formula 1 and eight patients were treated with a placebo capsule containing only doxycycline hyclate (50 mg). Patients received Formula 1 or placebo twice daily for twelve weeks. The number of comedones (“blackheads”) and nodular and inflammatory lesions (>2 mm in diameter) were counted on the face of each patient at baseline and at two weeks, six weeks and twelve weeks post-treatment.
The results are shown as the change at baseline and the percent change from baseline for each outcome measure after twelve weeks of treatment. Data are reported as mean values (±standard error of the mean, SEM) for each outcome measure. The results for ‘total lesions’ includes both comedones and inflammatory and nodular lesions.

patients = assay: Untoward effects in the placebo-controlled patient study; conditions: twice daily for twelve weeks, oral capsule
Protocol: as §1

[3] = tested on: inflammatory and nodular lesions and comedones (acne in patients); assay: Investigator Global Assessment (IGA) score of the appearance of inflammatory and nodular lesions and comedones; conditions: score of 1 to 10, 10 indicating the most improvement
Protocol: as §1
Next, an Investigator Global Assessment (IGA) score measuring the improvement of the appearance of inflammatory and nodular lesions and comedones was determined for each patient at baseline and 2 weeks and 6 weeks post-treatment. For this assessment the investigators were asked to evaluate whether their patient's lesions and comedones improved using a score of 1 to 10 with 10 indicating the most improvement.

serious untoward effects (patients): No serious untoward effects
Structure (SMILES): C[C@H]1c2cccc(O)c2C(O)=C2C(=O)[C@]3(O)C(O)=C(C(N)=O)C(=O)[C@@H](N(C)C)[C@@H]3[C@@H](O)[C@@H]21 [Placebo, doxycycline hyclate]
Por (BL), average number of porphyrins ([1]; baseline): 31.6
Por (W2), average number of porphyrins ([1]; week 2): 25.8
Por (W6), average number of porphyrins ([1]; week 6): 15.7
Por (W12), average number of porphyrins ([1]; week 12): 35.5
Total Comedones, Change from baseline, % ([2]; 12 weeks vs baseline): −27.4%
Total Inflammatory and Nodular Lesions, Change from baseline, % ([2]; 12 weeks vs baseline): −50.9%
Total Lesions, Change from baseline, % ([2]; 12 weeks vs baseline): −35.6%
reduction of the total number of lesions (comedones and inflammatory and nodular lesions) ([2]; after twelve weeks of treatment): 35.6%
reduction of the average number of comedones at twelve weeks compared to baseline ([2]; twelve weeks vs baseline): 27.4%
average number of comedones, week 2 ([2]; week 2): 29.0
average number of comedones, week 6 ([2]; week 6): 11.8
IGA score, baseline ([3]; baseline): 2.3
IGA score, six weeks ([3]; six weeks): 2.5
